Drawing on the Kinase Knowledgebase extract (Sharma et al. 2016), this text covers IC50 for 80 molecules.

This test deals with CDK2 (UniProt P24941). In words: Enzyme Assay.
A word on the IC50: it is the concentration that gives 50% inhibition. `O=C(CN1CCN(c2ccc(Cl)cc2)CC1)Nc1n[nH]c2ccc(N3CCCS3(=O)=O)cc12`: the half-inhibitory concentration (IC50) was < 10000 nM.
In the case of `CS(=O)(=O)c1ccc(CC(=O)Nc2n[nH]c3ccc(N4CCCS4(=O)=O)cc23)cc1`, the IC50 was < 50 nM.
For `CCOc1ccc(CC(=O)Nc2n[nH]c3ccc(N4CCCS4(=O)=O)cc23)cc1S(N)(=O)=O`, the half-inhibitory concentration (IC50) is < 1000 nM.
With `O=C(Cc1cccc([N+](=O)[O-])c1)Nc1n[nH]c2ccc(N3CCCS3(=O)=O)cc12`, the half-inhibitory concentration (IC50) was < 50 nM.
The value for `O=C(CN1CCc2ccccc2C1)Nc1n[nH]c2ccc(N3CCCS3(=O)=O)cc12` was < 1000 nM; that for `O=C(Cc1ccc(N2CCOCC2)cc1)Nc1n[nH]c2ccc(N3CCCS3(=O)=O)cc12` was < 100 nM.
On to `CCOc1ccc(CC(=O)Nc2n[nH]c3ccc(N4CCCS4(=O)=O)cc23)cc1`, for which the IC50 is < 50 nM.
The value for `Nc1ccc(CC(=O)Nc2n[nH]c3ccc(N4CCCS4(=O)=O)cc23)cc1` was < 50 nM.
The value for `CCNc1ccc(CC(=O)Nc2n[nH]c3ccc(N4CCCS4(=O)=O)cc23)cc1` was < 50 nM.
The value for `O=C(Nc1n[nH]c2ccc(N3CCCS3(=O)=O)cc12)C(c1ccccc1)C1CCCC1` (stereo not given) was < 100000 nM.
As for `CC(C)c1ccc(CC(=O)Nc2n[nH]c3ccc(N4CCCS4(=O)=O)cc23)cc1`, the IC50 is < 50 nM.
The value for `O=C(Cn1cnc(-c2ccc(Br)cc2)c1)Nc1n[nH]c2ccc(N3CCCS3(=O)=O)cc12` was < 100 nM; that for `O=C(Cc1cccc(Cl)c1)Nc1n[nH]c2ccc(N3CCCS3(=O)=O)cc12` was < 50 nM; that for `CN1CCN(Cc2ccc(CC(=O)Nc3n[nH]c4ccc(N5CCCS5(=O)=O)cc34)cc2)CC1` was < 100 nM.
On to `O=C(Cc1ccc2c(c1)OCO2)Nc1n[nH]c2ccc(N3CCCS3(=O)=O)cc12`, for which the IC50 is < 50 nM.
To `CSc1ccc(CC(=O)Nc2n[nH]c3ccc(N4CCCS4(=O)=O)cc23)cc1` belongs < 50 nM; to `COc1ccc(CC(=O)Nc2n[nH]c3ccc(N4CCCS4(=O)=O)cc23)cc1`, < 100 nM; to `CN1CCN(CC(=O)Nc2n[nH]c3ccc(N4CCCS4(=O)=O)cc23)CC1`, < 10000 nM.
Take `CC(=NO)Nc1n[nH]c2ccc(N3CCCS3(=O)=O)cc12`: the IC50 is < 100000 nM.
The value for `O=C(Nc1n[nH]c2ccc(N3CCCS3(=O)=O)cc12)C1(c2ccccc2)CCCC1` was < 100000 nM.
On to `O=C(Cc1ccc(Cl)c(Cl)c1)Nc1n[nH]c2ccc(N3CCCS3(=O)=O)cc12`, for which the IC50 is < 50 nM.
Consider `CC(=S)Nc1n[nH]c2ccc(N3CCCS3(=O)=O)cc12`, for which the IC50 was < 50000 nM.
Regarding `O=C(Cc1ccc(Oc2ccccc2)cc1)Nc1n[nH]c2ccc(N3CCCS3(=O)=O)cc12`, the IC50 is < 100 nM.
Turning to `O=C(Cn1cnc(-c2ccccc2)c1)Nc1n[nH]c2ccc(N3CCCS3(=O)=O)cc12`, the IC50 was < 50 nM.
The value for `Nc1nc(CC(=O)Nc2n[nH]c3ccc(N4CCCS4(=O)=O)cc23)cs1` was < 500 nM; that for `O=C(CCc1ccccc1)Nc1n[nH]c2ccc(N3CCCS3(=O)=O)cc12` was < 1000 nM; that for `CC(=O)Nc1nc(CC(=O)Nc2n[nH]c3ccc(N4CCCS4(=O)=O)cc23)cs1` was < 10000 nM.
With `CCOc1ccc(CC(=O)Nc2n[nH]c3ccc(N4CCCS4(=O)=O)cc23)cc1S(=O)(=O)N1CCOCC1`, the half-inhibitory concentration (IC50) is < 1000 nM.
To `Nc1cccc(CC(=O)Nc2n[nH]c3ccc(N4CCCS4(=O)=O)cc23)c1` belongs < 50 nM; to `CCC(C(=O)Nc1n[nH]c2ccc(N3CCCS3(=O)=O)cc12)c1ccccc1` (stereo not given), < 100000 nM; to `O=C(Cc1ccc(N(Cc2ccccc2)Cc2ccccc2)cc1)Nc1n[nH]c2ccc(N3CCCS3(=O)=O)cc12`, < 500 nM.
To `O=C(Cc1cccc2ccccc12)Nc1n[nH]c2ccc(N3CCCS3(=O)=O)cc12` belongs < 50 nM; to `COc1cc(CC(=O)Nc2n[nH]c3ccc(N4CCCS4(=O)=O)cc23)cc(OC)c1`, < 50 nM; to `O=C(Cc1ccc([N+](=O)[O-])cc1)Nc1n[nH]c2ccc(N3CCCS3(=O)=O)cc12`, < 50 nM.
To `O=C(CN1CCN(c2ccccc2)CC1)Nc1n[nH]c2ccc(N3CCCS3(=O)=O)cc12` belongs < 500 nM; to `Cc1ccc(CC(=O)Nc2n[nH]c3ccc(N4CCCS4(=O)=O)cc23)cc1`, < 50 nM.
For the molecule `CN1CCN(S(=O)(=O)c2ccc(CC(=O)Nc3n[nH]c4ccc(N5CCCS5(=O)=O)cc34)cc2)CC1`, the IC50 was < 1000 nM.
The value for `O=C(Cc1csc(NCc2ccc(OCc3ccccc3)cc2)n1)Nc1n[nH]c2ccc(N3CCCS3(=O)=O)cc12` was < 10000 nM; that for `O=C(Cc1ccc(-c2ccco2)cc1)Nc1n[nH]c2ccc(N3CCCS3(=O)=O)cc12` was < 50 nM.
Regarding `CCOc1ccc(CC(=O)Nc2n[nH]c3ccc(N4CCCS4(=O)=O)cc23)cc1[N+](=O)[O-]`, the IC50 was < 50 nM.
Consider `O=C(Cn1cnc2ccccc21)Nc1n[nH]c2ccc(N3CCCS3(=O)=O)cc12`, for which the IC50 is < 50 nM.
To `O=S1(=O)CCCN1c1ccc2[nH]nc(NC(=S)Cc3ccccc3)c2c1` belongs < 10000 nM; to `O=C(Cc1ccc(F)cc1)Nc1n[nH]c2ccc(N3CCCS3(=O)=O)cc12`, < 50 nM.
On to `COc1ccc(N2CCN(CC(=O)Nc3n[nH]c4ccc(N5CCCS5(=O)=O)cc34)CC2)cc1`, for which the IC50 is < 10000 nM.
To `NCCOc1ccc(CC(=O)Nc2n[nH]c3ccc(N4CCCS4(=O)=O)cc23)cc1` belongs < 100 nM.
In the case of `O=S1(=O)CCCN1c1ccc2[nH]nc(NC(Cc3ccccc3)=NO)c2c1`, the IC50 is < 10000 nM.
The value for `CCNc1nc(CC(=O)Nc2n[nH]c3ccc(N4CCCS4(=O)=O)cc23)cs1` was < 500 nM.
The value for `O=C(Cc1ccccc1)Nc1n[nH]c2ccc(N3CCCS3(=O)=O)cc12` was < 50 nM.
As to `O=C(Cc1ccc(Cn2ccnc2)cc1)Nc1n[nH]c2ccc(N3CCCS3(=O)=O)cc12`, the IC50 was < 1000 nM.
The value for `O=C(Cc1ccc(CN2CCOCC2)cc1)Nc1n[nH]c2ccc(N3CCCS3(=O)=O)cc12` was < 100 nM; that for `O=C(Cc1ccc(O)cc1)Nc1n[nH]c2ccc(N3CCCS3(=O)=O)cc12` was < 50 nM.
To `CCOc1ccc(CC(=O)Nc2n[nH]c3ccc(N4CCCS4(=O)=O)cc23)cc1Cl` belongs < 100 nM; to `CCOc1ccc(CC(=O)Nc2n[nH]c3ccc(N4CCCS4(=O)=O)cc23)cc1S(=O)(=O)N1CCN(C)CC1`, < 1000 nM; to `CCOc1ccccc1N1CCN(CC(=O)Nc2n[nH]c3ccc(N4CCCS4(=O)=O)cc23)CC1`, < 10000 nM.
The value for `CCNc1cccc(CC(=O)Nc2n[nH]c3ccc(N4CCCS4(=O)=O)cc23)c1` was < 500 nM; that for `Cc1ccccc1CC(=O)Nc1n[nH]c2ccc(N3CCCS3(=O)=O)cc12` was < 100 nM.
Turning to `CC(=O)c1ccc(N2CCN(CC(=O)Nc3n[nH]c4ccc(N5CCCS5(=O)=O)cc34)CC2)cc1`, the IC50 is < 10000 nM.
To `O=C(Cc1ccc(Br)cc1)Nc1n[nH]c2ccc(N3CCCS3(=O)=O)cc12` belongs < 50 nM; to `O=C(CN1CCCCC1)Nc1n[nH]c2ccc(N3CCCS3(=O)=O)cc12`, < 10000 nM; to `CCOc1cccc(CC(=O)Nc2n[nH]c3ccc(N4CCCS4(=O)=O)cc23)c1`, < 50 nM.
To `O=C(Cc1ccc(-c2ccncc2)cc1)Nc1n[nH]c2ccc(N3CCCS3(=O)=O)cc12` belongs < 50 nM; to `O=C(Cc1ccc(OCc2ccccc2)cc1)Nc1n[nH]c2ccc(N3CCCS3(=O)=O)cc12`, < 100 nM; to `O=C(Cc1cccc(Br)c1)Nc1n[nH]c2ccc(N3CCCS3(=O)=O)cc12`, < 50 nM.
To `COCCOCCOCCOc1ccc(CC(=O)Nc2n[nH]c3ccc(N4CCCS4(=O)=O)cc23)cc1` belongs < 100 nM.
On to `CCN(CC)c1ccc(CC(=O)Nc2n[nH]c3ccc(N4CCCS4(=O)=O)cc23)cc1`, for which the IC50 was < 50 nM.
As for `CNc1ccc(CC(=O)Nc2n[nH]c3ccc(N4CCCS4(=O)=O)cc23)cc1`, the IC50 is < 50 nM.
Regarding `O=C(Cn1cnc(-c2ccc(-c3ccccc3)cc2)c1)Nc1n[nH]c2ccc(N3CCCS3(=O)=O)cc12`, the IC50 is < 500 nM.
To `CCN(CC)c1nc(CC(=O)Nc2n[nH]c3ccc(N4CCCS4(=O)=O)cc23)cs1` belongs < 500 nM; to `O=C(Cn1cnc(-c2ccc3ccccc3c2)c1)Nc1n[nH]c2ccc(N3CCCS3(=O)=O)cc12`, < 50 nM; to `O=C(Cc1ccc(-c2ccccc2)cc1)Nc1n[nH]c2ccc(N3CCCS3(=O)=O)cc12`, < 50 nM.
Take `CC(=O)Nc1n[nH]c2ccc(N3CCCS3(=O)=O)cc12`: the IC50 was > 100000 nM.
On to `O=C(Cc1ccc(-c2ccsc2)cc1)Nc1n[nH]c2ccc(N3CCCS3(=O)=O)cc12`, for which the IC50 is < 50 nM.
The value for `O=C(Cc1ccc(S(=O)(=O)N2CCOCC2)cc1)Nc1n[nH]c2ccc(N3CCCS3(=O)=O)cc12` was < 100 nM; that for `O=C(CN1CCOCC1)Nc1n[nH]c2ccc(N3CCCS3(=O)=O)cc12` was < 10000 nM.
For `Cc1cccc(CC(=O)Nc2n[nH]c3ccc(N4CCCS4(=O)=O)cc23)c1`, the 50% inhibitory concentration (IC50) is < 50 nM.
To `O=C(Cc1ccc2ccccc2c1)Nc1n[nH]c2ccc(N3CCCS3(=O)=O)cc12` belongs < 50 nM; to `CCN(CC)c1cccc(CC(=O)Nc2n[nH]c3ccc(N4CCCS4(=O)=O)cc23)c1`, < 500 nM.
On to `CCOCCOCCOc1ccc(CC(=O)Nc2n[nH]c3ccc(N4CCCS4(=O)=O)cc23)cc1`, for which the half-inhibitory concentration (IC50) is < 100 nM.
Turning to `CC(C)(C)OC(=O)Nc1nc(CC(=O)Nc2n[nH]c3ccc(N4CCCS4(=O)=O)cc23)cs1`, the IC50 was < 100 nM.
To `O=C(Cc1ccc(Cl)cc1)Nc1n[nH]c2ccc(N3CCCS3(=O)=O)cc12` belongs < 50 nM.
